Source: ChEMBL document CHEMBL5316268 (J Med Chem, 2023)
Active and inactive are the calls of the source. The calls are words filed in the database; no cut-off is given here.

Assays:
5'-nucleotidase [1] = biological target: T1, 5'-nucleotidase (Homo sapiens, UniProt P21589); assay: Inhibition of recombinant human CD73
5'-nucleotidase [2] = biological target: T1, 5'-nucleotidase; assay: Inhibition of CD73 in human plasma incubated for 15 mins in presence of 15N5-AMP by LC/MS analysis; format: cell-free
[3] = Clearance in CD rat at 1 mg/kg, iv measured for 24 hrs by LC-MS/MS analysis; format: ADME, organism-based; settings: in vivo
5'-nucleotidase [4] = biological target: T1, 5'-nucleotidase; assay: Inhibition of soluble C-terminal 6His-tagged recombinant human CD73 (27 to 547 residues) expressed in CHO cells incubated for 1 hr by malachite green based spectrophotometer assay; format: cell-based
5'-nucleotidase [5] = biological target: T2, 5'-nucleotidase (Mus musculus, UniProt Q61503); assay: Inhibition of C-terminal 6His-tagged recombinant mouse CD73 (29 to 549 residues) expressed in CHO cells incubated for 1 hr by malachite green assay; format: cell-based
T2 sequence (Q61503 whole entry): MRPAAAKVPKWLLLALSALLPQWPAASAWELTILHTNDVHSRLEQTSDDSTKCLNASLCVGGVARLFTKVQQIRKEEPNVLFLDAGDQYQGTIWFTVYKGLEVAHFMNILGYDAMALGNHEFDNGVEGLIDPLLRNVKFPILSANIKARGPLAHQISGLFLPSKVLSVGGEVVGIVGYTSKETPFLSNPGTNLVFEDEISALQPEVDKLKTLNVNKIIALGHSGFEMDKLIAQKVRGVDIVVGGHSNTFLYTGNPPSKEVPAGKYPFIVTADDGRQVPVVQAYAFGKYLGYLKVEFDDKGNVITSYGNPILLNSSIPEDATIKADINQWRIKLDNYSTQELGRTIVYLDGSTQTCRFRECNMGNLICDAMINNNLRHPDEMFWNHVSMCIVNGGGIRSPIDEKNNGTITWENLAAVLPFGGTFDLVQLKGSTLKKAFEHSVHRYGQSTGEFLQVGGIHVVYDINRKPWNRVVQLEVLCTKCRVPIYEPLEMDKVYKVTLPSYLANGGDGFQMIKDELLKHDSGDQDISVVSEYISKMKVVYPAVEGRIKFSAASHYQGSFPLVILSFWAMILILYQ

EG7 = assay: Antitumor activity against mouse EG7 cells implanted in mouse; format: functional, cell-based
[6] = Oral bioavailability in CD rat at 50 mg/kg measured for 24 hrs by LC-MS/MS analysis; format: ADME, organism-based; settings: CD, in vivo
5'-nucleotidase [7] = biological target: T1, 5'-nucleotidase; assay: Inhibition of cell surface anchored CD73 (unknown origin) expressed in human SK-MEL-28 cells incubated for 30 mins by malachite green assay; format: cell-based
[8] = Selectivity ratio of IC50 for CD73 in human plasma to IC50 for C-terminal 6His-tagged recombinant human CD73 (27 to 547 residues) expressed in CHO cells; format: cell-based

T1 sequence (P21589 whole entry): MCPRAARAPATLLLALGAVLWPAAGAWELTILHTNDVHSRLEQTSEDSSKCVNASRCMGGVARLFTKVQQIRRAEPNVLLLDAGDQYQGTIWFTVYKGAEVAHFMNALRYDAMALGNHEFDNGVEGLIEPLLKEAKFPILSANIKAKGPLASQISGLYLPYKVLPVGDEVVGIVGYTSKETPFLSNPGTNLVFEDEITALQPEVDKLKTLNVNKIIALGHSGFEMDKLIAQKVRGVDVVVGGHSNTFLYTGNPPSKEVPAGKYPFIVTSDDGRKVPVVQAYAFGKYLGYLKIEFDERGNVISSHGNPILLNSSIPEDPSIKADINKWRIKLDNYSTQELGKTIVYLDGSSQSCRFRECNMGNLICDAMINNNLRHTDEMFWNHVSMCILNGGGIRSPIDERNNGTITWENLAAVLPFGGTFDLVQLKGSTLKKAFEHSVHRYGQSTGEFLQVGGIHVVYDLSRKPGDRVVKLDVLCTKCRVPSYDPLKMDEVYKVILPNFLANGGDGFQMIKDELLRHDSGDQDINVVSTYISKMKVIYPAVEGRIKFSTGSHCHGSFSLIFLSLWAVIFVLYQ

SMILES | IC50 (5'-nucleotidase [2]) [nM] | clearance [3] [mL/min/kg] | further results
Nc1ncnc2c1ncn2[C@@H]1O[C@H](COP(=O)(O)CP(=O)(O)O)[C@@H](O)[C@H]1O [PHOSPHOMETHYLPHOSPHONIC ACID ADENOSYL ESTER] | – | – | IC50 (5'-nucleotidase [1]): 6090 nM
C#C[C@@]1(O)[C@@H](COC(Cc2ccccc2)(C(=O)O)C(=O)O)O[C@@H](n2cnc3c(N4CC(O)C4)nc(Cl)nc32)[C@@H]1O | 5.4 | 17 | –
C#C[C@@]1(O)[C@@H](COC(Cc2ccccc2)(C(=O)O)C(=O)O)O[C@@H](n2cnc3c(NCC)nc(Cl)nc32)[C@@H]1O | 6.5 | 7.8 | –
C#C[C@@]1(O)[C@@H](COC(Cc2ccccc2)(C(=O)O)C(=O)O)O[C@@H](n2cnc3c(NC(C)C)cc(Cl)nc32)[C@@H]1O | 160 | 0.91 | IC50 (5'-nucleotidase [4]): 2 nM
C#C[C@@]1(O)[C@@H](COC(Cc2ccccc2)(C(=O)O)C(=O)O)O[C@@H](n2cnc3c(N)nc(Cl)nc32)[C@@H]1O | – | 13 | IC50 (5'-nucleotidase [5]): 7.3 nM; Activity (EG7): Active
C#C[C@@]1(O)[C@@H](COC(Cc2ccccc2)(C(=O)O)C(=O)O)O[C@@H](n2cnc3c(NC(C)C)nc(Cl)nc32)[C@@H]1O | 50 | 1.4 | –
C#C[C@@]1(O)[C@@H](COC(Cc2ccccc2)(C(=O)O)C(=O)O)O[C@@H](n2cnc3c(NCCO)nc(Cl)nc32)[C@@H]1O | 7.2 | 7.5 | –
CC[C@@]1(O)[C@@H](COC(Cc2ccccc2)(C(=O)O)C(=O)O)O[C@@H](n2cnc3c(N)nc(Cl)nc32)[C@@H]1O | – | – | IC50 (5'-nucleotidase [4]): 200 nM
Nc1nc(Cl)nc2c1ncn2[C@@H]1O[C@H](COC(Cc2ccccc2)(C(=O)O)C(=O)O)[C@@H](O)[C@H]1O | – | 20.4 | IC50 (5'-nucleotidase [1]): 100 nM; bioavailability [6]: 1.8%; IC50 (5'-nucleotidase [7]): 434 nM
C#C[C@@]1(O)[C@@H](COC(Cc2ccccc2)(C(=O)O)C(=O)O)O[C@@H](n2cnc3c(NC)nc(Cl)nc32)[C@@H]1O | 15.5 | 10 | –
CN(C(=O)c1ccccc1)c1ccc(CC(OC[C@H]2O[C@@H](n3cnc4c(N)nc(Cl)nc43)[C@@H](F)[C@@H]2O)(C(=O)O)C(=O)O)cc1 | – | – | IC50 (5'-nucleotidase [1]): 9 nM
C[C@@]1(O)[C@@H](COC(Cc2ccccc2)(C(=O)O)C(=O)O)O[C@@H](n2cnc3c(N)nc(Cl)nc32)[C@@H]1O | – | – | IC50 (5'-nucleotidase [7]): 169 nM
Nc1nc(Cl)nc2c1ncn2[C@@H]1O[C@H](COC(Cc2ccccc2)(C(=O)O)C(=O)O)[C@@H](O)[C@@H]1F | – | – | IC50 (5'-nucleotidase [1]): 159 nM
CC#C[C@@]1(O)[C@@H](COC(Cc2ccccc2)(C(=O)O)C(=O)O)O[C@@H](n2cnc3c(N)nc(Cl)nc32)[C@@H]1O | 1.6 | 9.9 | –
C#C[C@@]1(O)[C@@H](COC(Cc2ccc(N3CCCCC3=O)cc2)(C(=O)O)C(=O)O)O[C@@H](n2cnc3c(N)nc(Cl)nc32)[C@@H]1O | – | – | Ratio IC50 [8]: 1
C#C[C@@]1(O)[C@@H](COC(Cc2ccc(-c3ccccc3)cc2)(C(=O)O)C(=O)O)O[C@@H](n2cnc3c(N)nc(Cl)nc32)[C@@H]1O | 15.6 | 64 | Ratio IC50 [8]: 52
C#C[C@@]1(O)[C@@H](COC(Cc2ccccc2)(C(=O)O)C(=O)O)O[C@@H](n2cnc3c(N[C@H](C)c4ccccc4)nc(Cl)nc32)[C@@H]1O | 917 | 1 | –
C#C[C@@]1(O)[C@@H](COC(Cc2ccc(-c3ccccc3C(=O)O)cc2)(C(=O)O)C(=O)O)O[C@@H](n2cnc3c(N)nc(Cl)nc32)[C@@H]1O | 2.8 | 2.9 | Ratio IC50 [8]: 14
Nc1nc(Cl)nc2c1ncn2[C@@H]1O[C@H](COC(Cc2ccccc2)(C(=O)O)C(=O)O)[C@](O)(C#CC2CC2)[C@H]1O | 1.5 | 54 | –
C#C[C@@]1(O)[C@@H](COC(Cc2ccccc2)(C(=O)O)C(=O)O)O[C@@H](n2cnc3c(N[C@@H](C)c4ccccc4)nc(Cl)nc32)[C@@H]1O | 208 | 9.2 | –
C#C[C@@]1(O)[C@@H](COC(Cc2ccccc2)(C(=O)O)C(=O)O)O[C@@H](n2cnc3c(-c4cccs4)nc(Cl)nc32)[C@@H]1O | 136 | – | –
C#C[C@@]1(O)[C@@H](COC(Cc2ccccc2)(C(=O)O)C(=O)O)O[C@@H](n2cnc3c(NCc4ccccc4)nc(Cl)nc32)[C@@H]1O | > 100 | 6.3 | –
C#C[C@@]1(O)[C@@H](COC(Cc2ccccc2)(C(=O)O)C(=O)O)O[C@@H](n2cnc3c(N(C)C)nc(Cl)nc32)[C@@H]1O | 16 | 18 | –
C#C[C@@]1(O)[C@@H](COC(Cc2ccccc2)(C(=O)O)C(=O)O)O[C@@H](n2cnc3c(NCC4CC4)nc(Cl)nc32)[C@@H]1O | 11.5 | 3.7 | –
C#C[C@@]1(O)[C@@H](COC(Cc2ccc(-c3ccc[nH]c3=O)cc2)(C(=O)O)C(=O)O)O[C@@H](n2cnc3c(N)nc(Cl)nc32)[C@@H]1O | 0.38 | – | Ratio IC50 [8]: 3.8
C#C[C@@]1(O)[C@@H](COC(Cc2ccccc2)(C(=O)O)C(=O)O)O[C@@H](n2cnc3c(N(C)C)cc(Cl)nc32)[C@@H]1O | 41 | 5.9 | IC50 (5'-nucleotidase [4]): 2.1 nM
